Laboratory results published in patent US7157256B2, “Method for producing para-hydroxystyrene and other multifunctional aromatic compounds using two-phase extractive fermentation” (E. I. du Pont de Nemours and Company, priority 2003, dated 2007).
“And” between values parts separate entries of the source, which are not always exact repeats. Equal entries are not always repeated.

Tests used:
Type in all cases: cell-based
[1] = tested on: E. coli TY1 (DGL430); experiment: Effect of pHCA and pHS on growth and fermentation of E. coli, shake flasks
Experimental: This study was done using E. coli TY1 (DGL430), a tyrosine overproducing strain obtained from OmniGene Bioproducts, Inc. (Cambridge, Mass.). This strain also produces phenylalanine. The seed culture of this strain was propagated in a medium consisting of MgSO4.7H2O (0.5 g/L), (NH4)2SO4 (4 g/L), MOPS (20.9 g/L) and 10 mL of phosphate solution. The pH of the seed medium was adjusted to pH 6.8 and then the medium was steam-sterilized. The phosphate solution contained KH2PO4 (57.3 g/L) and K2HPO4 (110.2 g/L) and was adjusted to pH 6.8. The following solutions were then aseptically added to the seed medium to give the final concentration given in parentheses: thiamine (1 mg/L), glucose (1 g/L), lactose (15 g/L), 5 mL of a trace element solution, and tetracycline (5 mg/L). The trace element solution contained citric acid (10 g/L), CaCl2.2H2O (1.5 g/L), FeSO4.7H2O (5 g/L), ZnSO4.7H2O (0.39 g/L) and CuSO4.5H2O (0.38 g/L). The seed medium was inoculated from a frozen pre-seed culture and was grown in 250 mL baffled flasks in an Innova 4000 incubator shaker (New Brunswick Scientific Co., Edison, N.J.), incubated at 35° C. and 300 rpm for 12–16 h. One milliliter of this seed culture was used to inoculate each of the test cultures.
The test medium was 50 mL of an aqueous solution containing: (NH4)2SO4 (4 g), 1 mL of phosphate solution, MgSO4.7H2O (0.5 g), and MOPS (20.9 g), with the pH adjusted to 7.0. After sterilization of this medium, thiamine (1 mg/L), 5 mL of trace element solution, glucose (2 g/L), lactose (15 g/L), IPTG (0.5 mM), and tetracycline (10 mg/L) were aseptically added to give the final concentration given in parentheses. The 250 mL baffled flasks containing 50 mL of the test medium were inoculated with the seed culture and were incubated at 35° C. and 300 rpm for 42 h in the incubator shaker. Samples of the culture were taken at various times and the optical density at 550 nm (OD550) was measured spectrophotometrically. The pH of these samples was also measured. After completion of the fermentation, the tyrosine and phenylalanine concentrations in the culture were measured using HPLC, as described supra.
This experiment was repeated using pHS in place of pHCA.

[2] = tested on: P. putida NCIMB 9866; experiment: Effect of pHCA on the growth of Pseudomonas putida NCIMB 9866; details: pHCA 25 g/L
Experimental: (§1) Liquid cultures of these strains were grown in 10 mL of LB medium containing 0.25% glucose and 10 mM MgSO4 in 50 mL screw-capped, glass tubes at 30° C. and 200 rpm in an incubator shaker. In all subsequent media, pHCA was added from a 60 g/L stock solution, which was adjusted to pH 7.0 using KOH and then filter-sterilized. Samples of each culture were streaked on LB agar plates containing 0.25% glucose, 10 mM MgSO4 and 30 g/L pHCA and grown at 30° C. Individual colonies taken from these plates were grown to stationary phase at 30° C. in 10 mL of LB medium containing 0.5% glucose, 10 mM MgSO4 and 25 g/L pHCA in 50 mL screw-capped, glass tubes. These stationary phase cultures were diluted 1:25 in fresh LB medium containing 0.5% glucose, 10 mM MgSO4 and either 0 or 25 g/L pHCA and grown in 50 mL screw-capped, glass tubes at 30° C. and 200 rpm in an incubator shaker. Cell growth in these cultures was monitored by taking aliquots and measuring the OD at 600 nm of the culture or dilutions of the culture, which were made with LB medium. These OD measurements were used to calculate the doubling time and growth rate as a percentage of growth observed in test medium without pHCA.

[3] = tested on: P. putida KT2440; experiment: Effect of pHCA on the growth of Pseudomonas putida KT2440; details: pHCA 25 g/L
Experimental: as §1

[4] = adapted cells, LB medium, 30° C.
[5] = percentage of growth without pHCA

With `O=C(O)C=Cc1ccc(O)cc1` [pHCA, para-hydroxycinnamic acid] the “OD 550” value ([1]; 17.5 h, pHCA added 1.00 g/L (as sodium pHCA)) was 2.47 and 2.41, the “OD 550” value ([1]; 17.5 h, pHCA added 2.00 g/L) was 1.49 and 1.27 and the “OD 550” value ([1]; 17.5 h, pHCA added 4.00 g/L) was 0.20 and 0.22. The “OD 550” value ([1]; 17.5 h, pHCA added 8.00 g/L) was 0.15, the “OD 550” value ([1]; 17.5 h, pHCA added 16.00 g/L) was 0.19 and 0.13 and the “OD 550” value ([1]; 29 h, pHCA added 1.00 g/L) was 3.22 and 3.57. The “OD 550” value ([1]; 29 h, pHCA added 2.00 g/L) was 1.77 and 1.47, the “OD 550” value ([1]; 29 h, pHCA added 4.00 g/L) was 1.21 and 1.61 and the “OD 550” value ([1]; 29 h, pHCA added 8.00 g/L) was 0.16. For the same compound, the “OD 550” value ([1]; 29 h, pHCA added 16.00 g/L) was 0.21 and 0.13, the “OD 550” value ([1]; 42 h, pHCA added 1.00 g/L) was 3.37 and 3.48 and the “OD 550” value ([1]; 42 h, pHCA added 2.00 g/L) was 1.62 and 1.53. For the same compound, the Phe ([1]; 42 h, pHCA added 2.00 g/L) was 95 mg/L, the Tyr ([1]; 42 h, pHCA added 2.00 g/L) was 100 mg/L and 105 mg/L and the “OD 550” value ([1]; 42 h, pHCA added 4.00 g/L) was 1.54 and 1.55. The Phe ([1]; 42 h, pHCA added 4.00 g/L) was 15 mg/L and 20 mg/L, the Tyr ([1]; 42 h, pHCA added 4.00 g/L) was 65 mg/L and 75 mg/L and the “OD 550” value ([1]; 42 h, pHCA added 8.00 g/L) was 0.18 and 0.17. The Phe ([1]; 42 h, pHCA added 8.00 g/L) was 10 mg/L, the Tyr ([1]; 42 h, pHCA added 8.00 g/L) was 15 mg/L and 25 mg/L and the “OD 550” value ([1]; 42 h, pHCA added 16.00 g/L) was 0.23 and 0.14. The Phe ([1]; 42 h, pHCA added 16.00 g/L) was 5 mg/L, the Tyr ([1]; 42 h, pHCA added 16.00 g/L) was 0 mg/L and the Phe ([1]; 42 h, phenylalanine in culture, pHCA added 1.00 g/L) was 150 mg/L and 155 mg/L. For the same compound, the Tyr ([1]; 42 h, tyrosine in culture, pHCA added 1.00 g/L) was 210 mg/L and 190 mg/L, the “concentration at which complete inhibition of growth / no growth was observed” value ([1]; E. coli TY1 shake flask) was 8 g/L and the “concentration that inhibited cell growth” value ([1]; E. coli TY1 shake flask) was 1 g/L. For the same compound, the “Doubling Time” value [2, 4] was 105 min, the “Growth Rate, %” value [2, 5] was 18% and the “Doubling Time” value [3, 4] was 79 min. The “Growth Rate, %” value [3, 5] was 21%.
